The test system of assay [1] is human colon adenocarcinoma, MDR positive (HCT-15) cells. Description: 48-hour cellular proliferation assay (sulforhodamine staining, 96-well microtitre format). In kind it is cell-based. Conditions: 48 hours in culture, 0% = DMSO control, 100% = trichloroacetic acid-treated well; for inhibition at 100 µM: Homo sapiens, HCT-15, 10^-4M compound. As for the experimental part: (§1) Compounds of this invention were tested in a 48-hour cellular proliferation assay which uses human colon adenocarcinoma, MDR positive (HCT-15) cells, and human lung large cell carcinoma, MDR negative (NCI-H460) cells, in the 96-well microtitre format described in Skehan P., et al. New Colorimetric Cytotoxicity Assay for Anticancer Drug Screening. 1990, J. Natl. Cancer Inst. 82:1107-1112. Briefly, the wells of a microtitre plate were charged sequentially with cultured cells and compounds of the invention (1.0 x 10^-4 to 1.0 x 10^-11 M in 10% DMSO prepared by dissolving compounds of the invention in DMSO and adding 11 µL of the DMSO solution to 100 µL of culture medium for a final DMSO concentration of 10%). Two of the following controls were also present in each microtitre plate: a solvent (DMSO) control without drug that yielded a 0% inhibition level and a trichloroacetic acid-treated well that yielded a 100% inhibition level. The cells were grown in culture (37 °C, 5% CO2 atmosphere) for 48 hours then fixed by the addition of trichloroacetic acid. The wells were stained with sulforhodamine, washed with 1% acetic acid, and treated with 0.01 M tris buffer (100 µL) to solubilize the adherent dye. The absorbance of the dye solution was measured with a Molecular Devices SpechaMax340 plate reader. The percent inhibition values were obtained by calculating the proportional response of the experimental values to the absorbance values of the controls.

Assay [2] relates to human lung large cell carcinoma, MDR negative (NCI-H460) cells. The assay is described as above. In kind it is cell-based. The conditions noted are these: 10^-4M compound, 48 hours in culture, 0% = DMSO control, 100% = trichloroacetic acid-treated well; for inhibition at 100 µM: Homo sapiens, read-out: NCI-460 % inhibition at 10^-4M. As for the experimental part: as §1

The values below come from patent EP1181269B1, “CELL PROLIFERATION INHIBITORS” (ABBOTT LABORATORIES, priority 1999, dated 2000).

SMILES strings stand for the structures. A value given as a limit tells only on which side of the number the result lay.

The inhibition is the percentage by which the read-out fell short of the control.

For the molecule `COc1ccc(S(=O)(=O)Nc2cc(OC)c(OC)c(OC)c2)cc1` [Example 1, 4-methoxy-N-(3,4,5-trimethoxyphenyl)benzenesulfonamide], the inhibition at 100 µM is 99.4% in assay [1] and 98.5% in assay [2].

In the case of `COc1cc(NS(=O)(=O)c2ccc3c(c2)CCN3C=O)cc(OC)c1OC` [Example 2, 1-formyl-N-(3,4,5-trimethoxyphenyl)indoline-5-sulfonamide], the inhibition at 100 µM came out at 79.9% in assay [1] and 74% in assay [2].

As for `COc1cc(NS(=O)(=O)c2ccc3c(c2)CCN3)cc(OC)c1OC` [Example 3, N-(3,4,5-trimethoxyphenyl)indoline-5-sulfonamide], the inhibition at 100 µM is 86.2% in assay [1] and 59.3% in assay [2].

In the case of `COc1cc(NS(=O)(=O)c2c[nH]c3ccc([N+](=O)[O-])cc23)cc(OC)c1OC` [Example 4, 5-nitro-N-(3,4,5-trimethoxyphenyl)-1H-indole-3-sulfonamide], the inhibition at 100 µM in assay [1] is 15.9%; in assay [2], 41.7%.

With `COc1cc(NS(=O)(=O)c2ccc3c(c2)CCN3C)cc(OC)c1OC` [Example 5, 1-methyl-N-(3,4,5-trimethoxyphenyl)indoline-5-sulfonamide], the inhibition at 100 µM was 97.6% in assay [1] and 96.1% in assay [2].

Turning to `COc1cc(NS(=O)(=O)c2cn(C)c3ccc([N+](=O)[O-])cc23)cc(OC)c1OC` [Example 6, 1-methyl-5-nitro-N-(3,4,5-trimethoxyphenyl)-1H-indole-3-sulfonamide], the inhibition at 100 µM amounted to 50.6% in assay [1] and 45.5% in assay [2].

As for `COc1cc(NS(=O)(=O)c2cn(C)c3ccc(N)cc23)cc(OC)c1OC` [Example 7, 5-amino-1-methyl-N-(3,4,5-trimethoxyphenyl)-1H-indole-3-sulfonamide], the inhibition at 100 µM was 91.9% in assay [1] and 87% in assay [2].

`COc1cc(NS(=O)(=O)c2c[nH]c3ccc(N)cc23)cc(OC)c1OC` [Example 8, 5-amino-N-(3,4,5-trimethoxyphenyl)-1H-indole-3-sulfonamide]: the results for the inhibition at 100 µM in assay [1] and in assay [2] were 37% and below 9.1%, respectively.

With `COc1cc(NS(=O)(=O)c2ccc3[nH]ccc3c2)cc(OC)c1OC` [Example 9, N-(3,4,5-trimethoxyphenyl)-1H-indole-5-sulfonamide], the figures for the inhibition at 100 µM in assay [1] and in assay [2] were 94.1% and 89.1%, respectively.

On to `COc1cc(NS(=O)(=O)c2ccc3c(ccn3C)c2)cc(OC)c1OC` [Example 10, 1-methyl-N-(3,4,5-trimethoxyphenyl)-1H-indole-5-sulfonamide], for which the inhibition at 100 µM in assay [1] and in assay [2] was 100% throughout.

On to `COc1cc(N(C)S(=O)(=O)c2ccc3c(ccn3C)c2)cc(OC)c1OC` [Example 11, N,1-dimethyl-N-(3,4,5-trimethoxyphenyl)-1H-indole-5-sulfonamide], for which the inhibition at 100 µM in assay [1] turned out to be 100%; in assay [2], 99.9%.

On to `COc1cc(S(=O)(=O)Oc2ccc3[nH]ccc3c2)cc(OC)c1OC` [Example 15, 1H-indol-5-ol,(3,4,5-trimethoxybenzenesulfonate) ester], for which, in assay [1] (10^-4M compound), the “HCT-15 % inhibition at 10^-4M” value was 100.0%. Moreover, the “NCI-460 % inhibition at 10^-4M” value in assay [2] stood at 100.0%.

For the molecule `COc1cc(S(=O)(=O)Oc2ccc3c(ccn3C)c2)cc(OC)c1OC` [Example 16, 1-methyl-1H-indol-5-yl 3,4,5-trimethoxybenzenesulfonate], the inhibition at 100 µM in assay [1] and in assay [2] was 100% each time.
